Reference: patent US20240116946A1 (Gilead Sciences, Inc., priority 2022, published 2024)
Where two headings read alike, the source gives them in different places.

Tests used:
[1] = target: recombinant SARS-CoV-2 Main protease (Mpro) (Severe acute respiratory syndrome coronavirus 2 (2019-nCoV) (SARS-CoV-2), UniProt P0DTD1); test: Cov Mpro Biochemical IC50 Assay; settings: recombinant SARS-CoV-2 Mpro 7.5 nM, fluorogenic peptide substrate 40 μM; read-out: MPro IC50
SARS-CoV-2-NLuc = test: microbe, parasite or virus in culture; assay type: cell-based, SARS Coronavirus 2
[2] = Severe acute respiratory syndrome coronavirus, 48 h, read-out: MPro EC50
[3] = Severe acute respiratory syndrome coronavirus, 48 h; read-out: MPro EC50

| Structure (SMILES) | IC50 [1] | EC50 (SARS-CoV-2-NLuc; [2]) | EC50 (SARS-CoV-2-NLuc; [3]) |
| --- | --- | --- | --- |
| COc1ccc(Cl)c(-c2ccc3c(=O)n(-c4cncc5ccc(N6CC[C@H](OC)C6)cc45)c(=O)[nH]c3c2)c1 [Example 409] | 15.7 nM | 77.4 nM |  |
| COc1ccc(Cl)c(-c2ccc3c(=O)n(-c4cncc5ccc(N6CC7(CCOC7)C6)cc45)c(=O)[nH]c3c2)c1 [Example 410] | 12.8 nM |  | 58.6 nM |
| COc1ccc(Cl)c(-c2ccc3c(=O)n(-c4cncc5ccc(N6CC7(CNC(=O)C7)C6)cc45)c(=O)[nH]c3c2)c1 [Example 411] | 8.93 nM |  | 221 nM |
| COc1ccc(Cl)c(-c2ccc3c(=O)n(-c4cncc5ccc(N6CC7(COCCO7)C6)cc45)c(=O)[nH]c3c2)c1 [Example 412] | 10.8 nM |  | 38.3 nM |
| O=c1[nH]c2cc(-c3ccccc3Cl)sc2c(=O)n1-c1cncc2ccc(N3CCC(F)(F)C3)cc12 [Example 413] | 5.46 nM | 66.8 nM |  |
| COc1ccc(Cl)c(-c2cc3[nH]c(=O)n(-c4cncc5ccc(N6CCC(F)(F)C6)cc45)c(=O)c3s2)c1 [Example 414] | 7.63 nM | 20.1 nM |  |
| COc1ccc(Cl)c(-c2cc3[nH]c(=O)n(-c4cncc5ccc(N6CCO[C@H](C(F)(F)F)C6)cc45)c(=O)c3s2)c1 [Example 415] | 11.7 nM |  | 26.6 nM |
| COc1ccc(Cl)c(-c2cc3[nH]c(=O)n(-c4cncc5ccc(N6CCNC(=O)C6)cc45)c(=O)c3s2)c1 [Example 416] | 4.63 nM | 187 nM |  |
| O=c1[nH]c2cc(-c3ccccc3Cl)sc2c(=O)n1-c1cncc2ccc(N3CCO[C@H](C(F)(F)F)C3)cc12 [Example 417] | 17.8 nM | 160 nM |  |
| COc1ccc(C#N)c(-c2cc3[nH]c(=O)n(-c4cncc5ccc(N6CCC(F)(F)C6)cc45)c(=O)c3s2)c1 [Example 418] | 21.4 nM | 126 nM |  |
| O=c1[nH]c2cc(-c3ccccc3Cl)sc2c(=O)n1-c1cncc2ccc(N3CC4(C3)CC(F)(F)C4)cc12 [Example 419] | 21.1 nM | 74.9 nM |  |
| O=c1[nH]c2cc(-c3ccccc3Cl)sc2c(=O)n1-c1cncc2ccc(N3CC(F)(F)C3)cc12 [Example 420] | 10.8 nM | 50.9 nM |  |
| CS(=O)(=O)N1CCN(c2ccc3cncc(-n4c(=O)[nH]c5cc(-c6ccccc6Cl)sc5c4=O)c3c2)CC1 [Example 421] | 4.42 nM | 38.8 nM |  |
| CC(=O)N1CC2(C1)CN(c1ccc3cncc(-n4c(=O)[nH]c5cc(-c6ccccc6Cl)sc5c4=O)c3c1)C2 [Example 422] | 7.75 nM |  | 134 nM |
| O=C(C1CC1)N1CCN(c2ccc3cncc(-n4c(=O)[nH]c5cc(-c6ccccc6Cl)sc5c4=O)c3c2)CC1 [Example 423] | 6.5 nM | 53.7 nM |  |
| CS(=O)(=O)N1CC2(CN(c3ccc4cncc(-n5c(=O)[nH]c6cc(-c7ccccc7Cl)sc6c5=O)c4c3)C2)C1 [Example 424] | 11.3 nM | 55.8 nM |  |
| COc1ccc(Cl)c(-c2cc3[nH]c(=O)n(-c4cncc5ccc(N6CCN(S(C)(=O)=O)CC6)cc45)c(=O)c3s2)c1 [Example 425] | 7.69 nM |  | 30 nM |
| O=c1[nH]c2cc(-c3ccccc3Cl)sc2c(=O)n1-c1cncc2ccc(N3CC(O)(C(F)(F)F)C3)cc12 [Example 426] | 21.3 nM | 40.9 nM |  |
| O=c1[nH]c2cc(-c3ccccc3Cl)sc2c(=O)n1-c1cncc2ccc(N3CCC(O)(C(F)(F)F)CC3)cc12 [Example 427] | 15.6 nM | 24 nM |  |
| COc1ccc(C#N)c(-c2cc3[nH]c(=O)n(-c4cncc5ccccc45)c(=O)c3cc2F)c1 [Example 428, 2-(6-fluoro-3-(isoquinolin-4-yl)-2,4-dioxo-1,2,3,4-tetrahydroquinazolin-7-yl)-4-methoxybenzonitrile] | 10.2 nM | 17.9 nM |  |
| COc1ccc(C#N)c(-c2cc3[nH]c(=O)n(-c4cncc5ccc(OC)cc45)c(=O)c3cc2F)c1 [Example 429] | 2.83 nM | 11.2 nM |  |
| COc1ccc(Cl)c(-c2ccc3c(=O)n(-c4cncc5ccc(N6CCOCC6)cc45)c(=O)[nH]c3c2)c1 [Example 430] | 11.8 nM |  | 18.5 nM |
| COc1ccc(C#N)c(-c2ccc3c(=O)n(-c4cncc5ccc(N6CCOCC6)cc45)c(=O)[nH]c3c2)c1 [Example 431] | 10.5 nM | 71.3 nM |  |
| COc1ccc(Cl)c(-c2cc3[nH]c(=O)n(-c4cncc5ccc(N6CCOCC6)cc45)c(=O)c3s2)c1 [Example 432] | 6.99 nM |  | 6.37 nM |

| Structure (SMILES) | IC50 [1] | EC50 (SARS-CoV-2-NLuc; [2]) | EC50 (SARS-CoV-2-NLuc; [3]) |
| --- | --- | --- | --- |
| COc1ccc(C#N)c(-c2cc3[nH]c(=O)n(-c4cncc5ccc(N6CCOCC6)cc45)c(=O)c3s2)c1 [Example 433] | 7.8 nM | 69.5 nM |  |
| COc1ccc(Cl)c(-c2cc3[nH]c(=O)n(-c4cncc5ccc(N6CCOCC6)cc45)c(=O)c3cc2F)c1 [Example 434] | 16 nM |  | 33.3 nM |
| COc1ccc(C#N)c(-c2cc3[nH]c(=O)n(-c4cncc5ccc(N6CCOCC6)cc45)c(=O)c3cc2F)c1 [Example 435] | 6.97 nM | 37.4 nM |  |
| COc1ccc(Cl)c(-c2cc3[nH]c(=O)n(-c4cncc5nc(C67CC(F)(C6)C7)n(C)c45)c(=O)c3s2)c1 [Example 436] | 164 nM |  | 489 nM |
| COc1ccc(C#N)c(-c2cc3[nH]c(=O)n(-c4cncc5nc(C67CC(F)(C6)C7)n(C)c45)c(=O)c3s2)c1 [Example 437] | 535 nM | 10600 nM |  |
| COc1cc(-c2cc3[nH]c(=O)n(-c4cncc5cccc(F)c45)c(=O)c3s2)c(Cl)cc1F [Example 444, 6-(2-chloro-4-fluoro-5-methoxyphenyl)-3-(5-fluoroisoquinolin-4-yl)thieno[3,2-d]pyrimidine-2,4(1H,3H)-dione] | 5.45 nM | 8.86 nM |  |
| COc1ccc(Cl)c(-c2cc3[nH]c(=O)n(-c4cncc5cccc(F)c45)c(=O)c3s2)c1 [Example 445] | 5.71 nM | 22 nM |  |
| COc1ccc(C#N)c(-c2cc3[nH]c(=O)n(-c4cncc5cccc(F)c45)c(=O)c3s2)c1 [Example 446] | 8.74 nM | 25.5 nM |  |
| COc1ccc2cncc(-n3c(=O)[nH]c4cc(-c5ccccc5Cl)sc4c3=O)c2n1 [Example 449, 6-(2-chlorophenyl)-3-(2-methoxy-1,6-naphthyridin-8-yl)thieno[3,2-d]pyrimidine-2,4(1H,3H)-dione] | 14 nM | 29.2 nM |  |
| O=c1[nH]c2cc(-c3ccccc3Cl)ccc2c(=O)n1-c1cncc2cccnc12 [Example 450] | 127 nM | 211 nM |  |
| O=c1ccc2cncc(-n3c(=O)[nH]c4cc(-c5ccccc5Cl)sc4c3=O)c2[nH]1 [Example 452, 6-(2-chlorophenyl)-3-(2-oxo-1,2-dihydro-1,6-naphthyridin-8-yl)thieno[3,2-d]pyrimidine-2,4(1H,3H)-dione] | 9.24 nM | 82.5 nM |  |
| Cc1ccc2cncc(-n3c(=O)[nH]c4cc(-c5ccccc5Cl)sc4c3=O)c2n1 [Example 453, 6-(2-chlorophenyl)-3-(2-methyl-1,6-naphthyridin-8-yl)thieno[3,2-d]pyrimidine-2,4(1H,3H)-dione] | 3.83 nM | 22.1 nM |  |
| COc1cc(-c2cc3[nH]c(=O)n(-c4cncc5ccn(C)c45)c(=O)c3s2)c(Cl)cc1F [Example 454, 6-(2-chloro-4-fluoro-5-methoxyphenyl)-3-(1-methyl-1H-pyrrolo[3,2-c]pyridin-7-yl)thieno[3,2-d]pyrimidine-2,4(1H,3H)-dione] | 4.8 nM | 3.89 nM |  |
| COc1ccc(Cl)c(-c2cc3[nH]c(=O)n(-c4cncc5ccn(C)c45)c(=O)c3s2)c1 [Example 455] | 7.26 nM | 7.02 nM |  |
| COc1ccc(Cl)c(-c2cc3[nH]c(=O)n(-c4cncc5cccnc45)c(=O)c3s2)c1 [Example 456, 6-(2-chloro-5-methoxyphenyl)-3-(1,6-naphthyridin-8-yl)thieno[3,2-d]pyrimidine-2,4(1H,3H)-dione] | 3.59 nM | 6.79 nM |  |
| COc1ccc(Cl)c(-c2cc3[nH]c(=O)n(-c4cncc5ccc(N6CCOCC6)nc45)c(=O)c3s2)c1 [Example 457] | < 2.54 nM | < 6.04 nM |  |
| COc1ccc(Cl)c(-c2cc3[nH]c(=O)n(-c4cncc5ccc(N6CCS(=O)(=O)CC6)nc45)c(=O)c3s2)c1 [Example 458] | 12.1 nM | 188 nM |  |
| COc1ccc(Cl)c(-c2cc3[nH]c(=O)n(-c4cncc5ccc(C)nc45)c(=O)c3s2)c1 [Example 459] | 18.1 nM | 20.2 nM |  |
| COc1ccc(C#N)c(-c2cc3[nH]c(=O)n(-c4cncc5cccnc45)c(=O)c3s2)c1 [Example 460, 2-(3-(1,6-naphthyridin-8-yl)-2,4-dioxo-1,2,3,4-tetrahydrothieno[3,2-d]pyrimidin-6-yl)-4-methoxybenzonitrile] | 9.01 nM | 60.7 nM |  |
| COc1cc(-c2cc3[nH]c(=O)n(-c4cncc5ccc(C)nc45)c(=O)c3s2)c(Cl)cc1F [Example 461, 6-(2-chloro-4-fluoro-5-methoxyphenyl)-3-(2-methyl-1,6-naphthyridin-8-yl)thieno[3,2-d]pyrimidine-2,4(1H,3H)-dione] | 8.07 nM |  | 10 nM |
| COc1ccc(Cl)c(-c2ccc3c(=O)n(-c4cncc5cccnc45)c(=O)[nH]c3c2)c1 [Example 462, 7-(2-chloro-5-methoxyphenyl)-3-(1,6-naphthyridin-8-yl)quinazoline-2,4(1H,3H)-dione] | 28.4 nM | 61.5 nM |  |
| COc1cc(-c2cc3[nH]c(=O)n(-c4cncc5ccccc45)c(=O)c3s2)ccc1F [Example 469, 6-(4-fluoro-3-methoxy-phenyl)-3-(4-isoquinolyl)-1H-thieno[3,2-d]pyrimidine-2,4-dione] | 276 nM | 334 nM |  |
| COCCn1c(=O)n(-c2cncc3ccccc23)c(=O)c2sc(-c3ccccc3Cl)cc21 [Example 470, 6-(2-chlorophenyl)-3-(4-isoquinolyl)-1-(2-methoxyethyl)thieno[3,2-d]pyrimidine-2,4-dione] | 46.8 nM | 71.3 nM |  |
